Tested on: BIP and CHOP
Experiment: Western blot of ER stress markers
Type: cell-based, human
Conditions: 20 μg/ml, 24 hours, GBM cells
Description: (A) Western blotting analysis of ER stress protein markers BIP and CHOP expression in GBM cells treated with the DGAT1 inhibitor A-922500 (20 μg/ml) for 24 hr. (B) Percentage of cell death in U251 cells treated with the ER stress pathway PERK inhibitor GSK2656157 or IRE1a inhibitor 4μ8C, alone or in combination with the DGAT1 inhibitor A-922500 (20 μg/ml) for 3 days. […] (C) Western blotting analysis of expression of ER stress protein markers BIP and CHOP in GBM cells infected with shRNA-expressing lentivirus against DGAT1 for 48 hr.
Western Blotting Cells were lysed by RIPA buffer (Cat #NC9484499; Fisher Scientific) containing protease inhibitor cocktail (Cat #11836170001; Roche) and phosphatase inhibitor (Cat #04906845001; Roche). The proteins were separated by using 12% SDS-PAGE, and transferred onto a Hybond ECL nitrocellulose membrane (Cat #RPN3032D; GE Healthcare).
After blocking for 1.5 h in 5% nonfat milk diluted by Tris-buffered saline containing 0.1% Tween 20, the membranes were incubated with various primary antibodies, followed by secondary antibodies conjugated to horseradish peroxidase.

O=C(Nc1ccccc1)Nc1ccc(-c2ccc(C(=O)[C@@H]3CCC[C@H]3C(=O)O)cc2)cc1 [A-922500]
protein levels of BIP and CHOP (ER stress): induces ER stress | protein levels of BIP and CHOP (ER stress) (listed as A922500): increased

Reference: US20240148679A1, “METHODS AND COMPOSITIONS RELATED TO TREATMENT AND PREVENTION OF CANCER BY INHIBITION OF DGAT1 AND DGAT2” (Ohio State Innovation Foundation, priority 2019, published 2024)
